In publication PMC4467917 (ACS infectious diseases, 2015):
Read-outs that look alike come from different tables or passages of the source.

Tests used:
[1] = target: T1, xanthine oxidase (Mus musculus, UniProt Q00519); test: Effect of allopurinol predosing on PZA and POA exposure in CD-1 mice; settings: allopurinol pretreatment either 4 doses of 20 mg/kg or 1 dose of 40 mg/kg
[2] = target: T1, xanthine oxidase; settings: female, CD-1, mouse, in vivo, po, 40 mg/kg
[3] = tested on: acute intravenous infection; settings: administered at 2 to 5% in food; cited from earlier work
[4] = tested on: M. tuberculosis strains H37Rv and H37Ra; test: In vitro growth inhibitory assay in liquid medium; format: cell-based, Mycobacterium tuberculosis
[5] = Oral pharmacokinetics of POA in preclinical species; format: in vivo; settings: single oral POA dose; mice, guinea pigs and rabbits
[6] = tested on: M. tuberculosis H37Rv or H37Ra; test: Susceptibility on solid media; format: cell-based, Mycobacterium tuberculosis
[7] = Plasma pharmacokinetics of oral PZA or POA in naïve New Zealand white rabbits; format: in vivo, rabbit
[8] = tested on: xanthine oxidase; test: Effect of allopurinol predosing on PZA and POA exposure in NZW rabbits; format: in vivo, rabbit; settings: for AUC: female, New Zealand white, rabbit, plasma, 40 mg/kg
[9] = Solubility of POA in aqueous media; format: physicochemical
[10] = Plasma pharmacokinetics of oral PZA or POA in naïve guinea pigs
[11] = format: in vivo, human; settings: for CmaxPZA: Korean subjects, PZA 22–30 mg/kg
[12] = female, rabbit, in vivo, po, 250 mg/kg
[13] = not given; remark: listed apart in the source
[14] = in vivo; settings: female, CD-1, mouse, plasma, po, 150 mg/kg
[15] = in vivo; settings: BALB/c, mouse, po, 150 mg/kg
[16] = C3HeB/FeJ, mouse, in vivo
[17] = not given; remark: listed apart in the source
[18] = cited from earlier work
[19] = in vivo; settings: female, C3HeB/FeJ, mouse, plasma, po, 150 mg/kg
[20] = in vivo; settings: female, New Zealand white (NZW), rabbit, po, 250 mg/kg
[21] = not given; remark: listed apart in the source
[22] = in vivo; settings: C3HeB/FeJ, mouse, po
[23] = Plasma pharmacokinetics of PZA and POA metabolite in uninfected marmosets
[24] = female, Hartley, guinea pig, in vivo, po, 300 mg/kg
[25] = both, human, plasma, oral, 1500 mg
[26] = over a 24 h period, 14 TB patients, 1500 mg PZA, from PK model
[27] = female, BALB/c, mouse, in vivo, po, 150 mg/kg
[28] = female, New Zealand white, rabbit, plasma, po
[29] = both, human, plasma, po, 1500 mg

T1 sequence (Q00519 whole entry): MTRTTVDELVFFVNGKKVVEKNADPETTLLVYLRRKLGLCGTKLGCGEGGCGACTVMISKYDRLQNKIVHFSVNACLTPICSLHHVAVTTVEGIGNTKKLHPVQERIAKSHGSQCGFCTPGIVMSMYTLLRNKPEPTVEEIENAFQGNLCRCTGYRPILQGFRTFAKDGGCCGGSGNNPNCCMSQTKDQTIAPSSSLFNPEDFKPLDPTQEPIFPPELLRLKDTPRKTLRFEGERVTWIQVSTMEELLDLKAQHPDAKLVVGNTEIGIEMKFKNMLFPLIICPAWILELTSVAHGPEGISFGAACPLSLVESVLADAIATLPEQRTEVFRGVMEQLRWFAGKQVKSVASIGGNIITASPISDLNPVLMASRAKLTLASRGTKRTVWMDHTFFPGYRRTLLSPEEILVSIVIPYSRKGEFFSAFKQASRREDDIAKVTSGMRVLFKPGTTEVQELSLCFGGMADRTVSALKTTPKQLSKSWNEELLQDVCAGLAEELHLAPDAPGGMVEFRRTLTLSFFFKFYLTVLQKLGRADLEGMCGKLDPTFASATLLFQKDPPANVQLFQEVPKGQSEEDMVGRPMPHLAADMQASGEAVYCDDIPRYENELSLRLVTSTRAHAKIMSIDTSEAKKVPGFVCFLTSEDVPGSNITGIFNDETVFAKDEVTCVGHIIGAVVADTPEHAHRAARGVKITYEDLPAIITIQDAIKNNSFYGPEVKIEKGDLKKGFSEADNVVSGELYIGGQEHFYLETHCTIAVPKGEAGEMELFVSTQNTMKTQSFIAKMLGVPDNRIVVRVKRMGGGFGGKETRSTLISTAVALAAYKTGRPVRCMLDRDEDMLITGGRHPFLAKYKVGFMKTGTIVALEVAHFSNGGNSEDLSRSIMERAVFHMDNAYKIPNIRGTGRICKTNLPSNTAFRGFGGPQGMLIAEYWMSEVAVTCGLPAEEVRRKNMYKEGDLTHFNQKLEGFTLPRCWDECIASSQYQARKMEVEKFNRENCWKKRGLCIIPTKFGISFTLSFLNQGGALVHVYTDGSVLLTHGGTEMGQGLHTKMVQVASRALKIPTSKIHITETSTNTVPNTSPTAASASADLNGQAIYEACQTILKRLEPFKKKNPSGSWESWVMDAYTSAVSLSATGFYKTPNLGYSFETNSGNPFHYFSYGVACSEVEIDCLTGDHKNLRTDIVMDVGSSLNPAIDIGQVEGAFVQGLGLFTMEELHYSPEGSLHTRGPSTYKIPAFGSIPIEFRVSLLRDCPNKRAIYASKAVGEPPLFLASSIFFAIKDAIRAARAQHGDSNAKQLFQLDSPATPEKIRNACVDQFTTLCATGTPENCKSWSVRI

## O=C(O)c1cnc(O)cn1 [5-hydroxy-POA, 5-hydroxypyrazinoate]
[1]
  change in 5-hydroxy-POA exposure: concomitant decrease

## O=C(O)c1cnccn1 [POA, pyrazinoic acid]
[2]
  fold increase in POA exposure: 12 fold
[3]
  efficacy in a mouse model of acute intravenous infection: lack of POA efficacy
[4]; pH 5.5, 5.8 and 6.5, H37Ra and H37Rv
  potency relative to PZA in liquid medium: consistently more potent than PZA
[4]; various pH and inocula
  fold more potent than PZA in vitro: 2- to 4 fold
[5]
  oral bioavailability: orally bioavailable
[6]
  potency relative to PZA on agar plates: twice as potent as PZA
other
  concentrations at 24 h post PZA dosing: below the limit of quantification
female, New Zealand White, rabbit, in vivo
  tissue-to-plasma ratios: 0.2 and 0.5
[7]; female, New Zealand white, rabbit, plasma, po, 200 mg/kg
  AUC: 2010 µg·h/mL
[7]; naïve rabbits, single oral POA dose 200 mg/kg, average (SD)
  CmaxPOA: 244 (51) µg/mL
[8]; rabbits, allopurinol 3 doses of 40 mg/kg followed by oral PZA 150 mg/kg
  effect of allopurinol predosing on POA exposure: no effect
[9]
  solubility in aqueous media: poor solubility
[10]; [24]
  AUC: 449 µg·h/mL
[10]; naïve guinea pigs, single oral POA dose 300 mg/kg, average (SD)
  CmaxPOA: 165 (74) µg/mL
[11]; active TB patients
  POA/PZA exposure ratio in plasma: approximately 0.2
[11]; [25]
  clearance: 31.7 mL/min
[11]; [26]
  POA/PZA exposure ratio (range): 17–32%
  median POA/PZA exposure ratio: 19%
[12]; New Zealand white (NZW)
  AUCPOA met (POA metabolite derived from dosing of PZA): 504 (139) µg·h/ml
  CmaxPOA met: 111 (27) µg/mL
[12]; New Zealand white
  AUCPOA/AUCPZA ratio: 1.70 (0.21)
[13]; naïve CD1 mice, single oral POA dose 150 mg/kg, average (SD)
  CmaxPOA: 102 (32) µg/mL
[14]
  AUC: 136 µg·h/mL
[15]; female
  AUC: 287 µg·h/mL
[16]; po
  CLm/Fm, oral clearance of the POA metabolite: 2.18 (6) L/h/kg
  Vm/Fm, oral volume of distribution of the POA metabolite: 0.47 (13) L/kg
[16]; po, 150 mg/kg
  AUCPOA met (POA metabolite derived from dosing of PZA): 76 (16) µg·h/ml
  AUCPOA/AUCPZA ratio: 0.18 (0.02)
  CmaxPOA met: 16(5) µg/mL
[17]; [27]
  AUCPOA met (POA metabolite derived from dosing of PZA): 131 (13) µg·h/ml
  AUCPOA/AUCPZA ratio: 0.38 (0.02)
  CmaxPOA met: 43 (10) µg/mL
[17]; naïve BalbC mice, single oral POA dose 150 mg/kg, average (SD)
  CmaxPOA: 155(33) µg/mL

## NC(=O)c1cnccn1 [PZA, pyrazinamide]
[18]; 1 to 2 h postdose
  “normal” peak plasma concentrations: 20 to 60 µg/mL
[18]; TB patients receiving a standard daily dose of 1500 mg PZA
  mean AUC: 380 to 625 µg·h/mL
[19]
  AUC: 580 µg·h/mL
  CL/F: 10.3 mL/min/kg
  Vd/F: 1.02 L/kg
  k el: 0.000169 s⁻¹
[4]; across the pH range
  susceptibility of H37Rv compared with H37Ra: less susceptible to PZA than H37Ra
other
  concentrations at 24 h post PZA dosing: below the limit of quantification
[7]; [28]
  CL/F: 12.5 mL/min/kg
  Vd/F: 3.72 L/kg
  k el: 5.56e-05 s⁻¹
[7]; female, New Zealand white, rabbit, plasma, po, 300 mg/kg
  AUC: 457 µg·h/mL
[7]; naïve rabbits, calculated to achieve a target AUC of 450 mg·h/L
  human-equivalent PZA dose: 300 mg/kg
[7]; naïve rabbits, single oral PZA dose 300 mg/kg, average (SD)
  CmaxPZA: 82 (17) µg/mL
[7]; rabbits, PK model typical value (standard error)
  ka, absorption rate constant: 4.8 (2) h^−1
[20]
  AUC: 296 µg·h/mL
[10]; [24]
  AUC: 342 µg·h/mL
  CL/F: 12.5 mL/min/kg
  Vd/F: 2.54 L/kg
  k el: 8.06e-05 s⁻¹
[10]; guinea pigs, PK model typical value (standard error NA)
  ka, absorption rate constant: 7.7 (NA) h^−1
[10]; naïve guinea pigs, calculated to achieve a target AUC of 450 mg·h/L
  human-equivalent PZA dose: 400 mg/kg
[10]; naïve guinea pigs, single oral PZA dose 300 mg/kg, average (SD)
  CmaxPZA: 179 (100) µg/mL
[21]; C3HeB/FeJ mice, PK model typical value (standard error)
  ka, absorption rate constant: 4.47 (21) h^−1
[21]; naïve C3HeB/FeJ mice, single oral PZA dose 150 mg/kg, average (SD)
  CmaxPZA: 190 (24) µg/mL
[11]; single dose
  CmaxPZA: 43 µg/mL
[11]; steady state
  CmaxPZA: 59 µg/mL
[11]; TB patients, PK model typical value (standard error)
  ka, absorption rate constant: 0.72 (18) h^−1
[11]; [25]
  clearance: 28.3 mL/min
  k el: 1.58e-05 s⁻¹
[11]; both, human, plasma, po
  AUC: 617 to 738 µg·h/mL
[11]; [29]
  CL/F: 0.467 mL/min/kg
  Vd/F: 0.49 L/kg
[12]; New Zealand white (NZW)
  CmaxPZA: 90 (35) µg/mL
[13]; CD1 mice, PK model typical value (standard error)
  ka, absorption rate constant: 15 (11) h^−1
[13]; naïve CD1 mice, single oral PZA dose 150 mg/kg, average (SD)
  CmaxPZA: 109 (11) µg/mL
[22]
  CL/F: 6.33 mL/min/kg
  Vd/F: 1.85 L/kg
[22]; 150 mg/kg
  AUC: 425 µg·h/mL
[14]
  AUC: 210 µg·h/mL
  CL/F: 12.5 mL/min/kg
  Vd/F: 1.28 L/kg
  k el: 0.000161 s⁻¹
[23]; marmoset (Callithrix jacchus), in vivo, po, 125 mg/kg
  AUC: 743 µg·h/mL
[23]; marmosets, PK model typical value (standard error)
  ka, absorption rate constant: 0.81 (7) h^−1
[23]; monkey, in vivo, po, 125 mg/kg
  CL/F: 3.83 mL/min/kg
  Vd/F: 1.1 L/kg
  k el: 5.83e-05 s⁻¹
[23]; naïve marmosets, calculated to achieve a target AUC of 450 mg·h/L
  human-equivalent PZA dose: 100 mg/kg
[23]; naïve marmosets, single oral PZA dose 125 mg/kg, average (SD)
  CmaxPZA: 80 (47) µg/mL
[15]
  AUC: 388 µg·h/mL
[15]; female
  CL/F: 7.83 mL/min/kg
  Vd/F: 0.78 L/kg
  k el: 0.000167 s⁻¹
[16]
  human-equivalent PZA dose: 160 mg/kg
  ka, absorption rate constant: 220 (1) h^−1
[16]; po, 150 mg/kg
  CmaxPZA: 89 (20) µg/mL
[17]; BALB/c mice, PK model typical value (standard error)
  ka, absorption rate constant: 18 (8) h^−1
[17]; BALB/c, mouse, in vivo
  human-equivalent PZA dose: 175 mg/kg
[17]; [27]
  CmaxPZA: 163 (38) µg/mL

## Oc1ncnc2[nH]ncc12 [allopurinol]
[8]
  AUC: 8 µg·h/mL

## O=c1[nH]c(=O)c2c[nH]nc2[nH]1 [oxypurinol]
[8]
  AUC: 124 µg·h/mL
